Reference: patent US20250032573A1, “IMMUNITY-ENHANCING PEPTIDE ANALOGS AND USES THEREOF” (RESEARCH & BUSINESS FOUNDATION SUNGKYUNKWAN UNIVERSITY, priority 2023, published 2025)
Values belong to the molecule of their own block, whether it stands above or below them. Numbered stars: 1 amine (or outer) side, 2 acyl side, 3 side chain; on linkers, the order of the positions; unused ones are H or OH. Square brackets hold non-standard residues; d marks the D form. Peptide text beside a SMILES is read from it. Gly(N-4-hydroxybenzyl) = O=C(O)CNCc1ccc(O)cc1; X1 = CSCCN(CC(=O)[*:2])[*:1]; Nlys = NCCCCNCC(=O)O

Tests used:
[1] = Degradation half-life in human liver S9 fraction (HPLC); assay type: in vitro ADME
Experimental: To measure the ex vivo stability of the eight analogs comprising a β^3-amino acid residue, the degradation half-life of each analog was measured in a human liver S9 fraction. The degradation half-life was measured by culturing the peptide and serum together at 37° C. and measuring the degree to which the compound was reduced using HPLC at each hour.
The ex vivo stability of the analogs to which a peptoid residue was introduced was measured using the same method as the stability measurement method for the analogs comprising a β-amino acid residue. […] On the other hand, it was confirmed that K peptoid, KY peptoid, and KM peptoid had very high stability so that more than half of them was not degraded even after 24 hours (FIG. 17).

neutrophils [2] = test: Degranulation activity of neutrophils (beta-hexosaminidase activity); assay type: cell-based
Experimental: The degranulation activity of neutrophils by the analogs in which each amino acid in the structure of WKYMVm was substituted with a β-amino acid was compared and analyzed by measuring beta-hexosaminidase activity.
The degranulation activity of neutrophils by the peptoid-containing analogs in which a peptoid residue was substituted for K, Y, and M in the structure of WKYMVm was measured.

neutrophils [3] = test: Superoxide anion (ROS) production in neutrophils; assay type: cell-based
Experimental: The effect of superoxide anion production in neutrophils by the peptoid-comprising analogs in which a peptoid residue was substituted for K, Y, and M in the structure of WKYMVm was measured.

FIG. 17 = test: FIG. 17
Description: Table printed on a drawing sheet, FIG. 17

FPR1 = FPR1 (Homo sapiens, UniProt P21462); test: cell-based; conditions: for increase in intracellular calcium ions through activation of FPR1 (in words): FPR1-expressing RBL-2H3 cell line
Chain of FPR1 (P21462 whole entry): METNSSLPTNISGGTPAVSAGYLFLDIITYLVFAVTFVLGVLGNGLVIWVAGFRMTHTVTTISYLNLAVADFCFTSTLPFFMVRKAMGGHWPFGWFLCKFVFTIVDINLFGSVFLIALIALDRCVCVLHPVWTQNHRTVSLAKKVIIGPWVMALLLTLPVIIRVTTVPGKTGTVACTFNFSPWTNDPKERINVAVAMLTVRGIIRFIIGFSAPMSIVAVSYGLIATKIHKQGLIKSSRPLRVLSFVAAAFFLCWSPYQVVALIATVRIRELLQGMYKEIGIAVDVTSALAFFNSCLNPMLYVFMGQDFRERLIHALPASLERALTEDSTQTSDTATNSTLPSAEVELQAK
Experimental: To investigate whether activation of FPR1, which is important in regulating the activity of innate immune cells, is induced by the WKYMVm peptide analogs, changes in calcium ions were measured in RBL-2H3 cell line, a type of mast cell that artificially expressed FPR1. […] On the other hand, an increase in intracellular calcium ions by WKYMVβm (V is a β-amino acid) through activation of FPR1 was not observed.

neutrophils [4] = test: Neutrophil chemotaxis assay using a Boyden chamber; assay type: cell-based; conditions: for chemotactic migration of neutrophils: from 1 nM or 10 nM to 1 μM
Experimental: To investigate the effect of the WKYMVm peptide analogs on the regulation of immune cell mobility, which a representative function of FPR, a chemotaxis assay was performed using a Boyden chamber.
To measure the in vitro innate immune activity of four peptides comprising one non-natural β^3-amino acid residue, the effect of enhancing neutrophil mobility was measured.

FPR2 = FPR2 (Homo sapiens, UniProt P25090); test: cell-based; conditions: for increase in intracellular calcium ions through activation of FPR2 (in words): FPR2-expressing RBL-2H3 cell line
Chain of FPR2 (P25090 whole entry): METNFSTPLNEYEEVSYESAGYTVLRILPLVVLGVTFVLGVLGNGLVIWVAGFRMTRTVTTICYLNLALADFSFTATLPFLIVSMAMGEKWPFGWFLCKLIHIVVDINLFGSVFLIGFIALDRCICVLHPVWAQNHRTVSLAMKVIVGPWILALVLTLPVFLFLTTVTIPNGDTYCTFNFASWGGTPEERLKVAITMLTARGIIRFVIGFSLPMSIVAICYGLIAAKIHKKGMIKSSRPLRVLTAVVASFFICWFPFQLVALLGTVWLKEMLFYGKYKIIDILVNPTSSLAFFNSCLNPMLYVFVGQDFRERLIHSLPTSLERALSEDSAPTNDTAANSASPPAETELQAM
Experimental: To investigate whether activation of FPR2 is induced by the WKYMVm peptide analogs, changes in calcium ions were measured in RBL-2H3 cell line that artificially expressed FPR2.

neutrophils [5] = system: neutrophils
【FIG 16】 = test: 【FIG 16】
Description: Table printed on a drawing sheet, 【FIG 16】

[6] = human liver S9 fraction, 37° C., 24-hour measurement period, read-out: degradation half-life
[7] = human liver S9 fraction, 37° C.

Half-Life [1, 6]: > 24 h
Molecule: CSCC[C@H](NC(=O)[C@H](Cc1ccc(O)cc1)NC(=O)CN(CCCCN)C(=O)[C@@H](N)Cc1c[nH]c2ccccc12)C(=O)N[C@H](C(=O)N[C@H](CCSC)C(N)=O)C(C)C [K peptoid]
degranulation activity of neutrophils (neutrophils [2]): promoted the degranulation activity of neutrophils to the extent similar to the WKYMVm peptide | superoxide anion production in neutrophils (neutrophils [3]): effectively promote superoxide anion production

Half-Life ([1]; human, s9): > 24 h
Molecule: CSCC[C@@H](NC(=O)[C@@H](NC(=O)CN(CCSC)C(=O)[C@H](Cc1ccc(O)cc1)NC(=O)CN(CCCCN)C(=O)[C@@H](N)Cc1c[nH]c2ccccc12)C(C)C)C(N)=O [KM peptoid] (H-W[Nlys]Y[X1]V[dM]-NH2)

Half-Life ([1]; human, s9): > 24 h
Molecule: CSCC[C@H](NC(=O)CN(Cc1ccc(O)cc1)C(=O)CN(CCCCN)C(=O)[C@@H](N)Cc1c[nH]c2ccccc12)C(=O)N[C@H](C(=O)N[C@H](CCSC)C(N)=O)C(C)C [KY peptoid] (H-W[Nlys][Gly(N-4-hydroxybenzyl)]MV[dM]-NH2)

Molecule: CSCC[C@@H](NC(=O)[C@@H](NC(=O)CN(CCSC)C(=O)[C@H](Cc1ccc(O)cc1)NC(=O)[C@H](CCCCN)NC(=O)[C@@H](N)Cc1c[nH]c2ccccc12)C(C)C)C(N)=O [M peptoid] (H-WKY[X1]V[dM]-NH2)
Half-Life (FIG. 17): 2.5 h | degranulation activity of neutrophils (neutrophils [2]): promoted the degranulation activity of neutrophils to the extent similar to the WKYMVm peptide | superoxide anion production in neutrophils (neutrophils [3]): effectively promote superoxide anion production

Molecule: CSCC[C@@H](CC(=O)N[C@H](C(=O)N[C@H](CCSC)C(N)=O)C(C)C)NC(=O)[C@H](Cc1ccc(O)cc1)NC(=O)[C@H](CCCCN)NC(=O)[C@@H](N)Cc1c[nH]c2ccccc12 [WKYMβVm]
EC50 (FPR1): 431 nM | increase in intracellular calcium ions through activation of FPR1 (in words) (FPR1): increase in calcium ions in a concentration-dependent manner was also observed | degradation half-life / ex vivo stability compared to the WKYMVm peptide (in words) [1, 7]: half-life similar to that of the WKYMVm peptide | degranulation activity of neutrophils (neutrophils [2]): induced the degranulation activity of neutrophils very effectively to a similar extent as the WKYMVm peptide | superoxide anion production in neutrophils (neutrophils [3]): induce superoxide anion production very effectively to a similar extent as the WKYMVm peptide | chemotactic migration of neutrophils (neutrophils [4]): effectively induce chemotactic migration of neutrophils in a concentration-dependent manner | EC50 (FPR2): 14 nM | increase in intracellular calcium ions through activation of FPR2 (in words) (FPR2): increase in calcium ions in a concentration-dependent manner was observed | calcium ion-increasing effect in neutrophils (neutrophils [5]): highly induced

Molecule: CSCC[C@H](NC(=O)C[C@H](Cc1ccc(O)cc1)NC(=O)[C@H](CCCCN)NC(=O)[C@@H](N)Cc1c[nH]c2ccccc12)C(=O)N[C@H](C(=O)N[C@H](CCSC)C(N)=O)C(C)C [WKYβMVm]
EC50 (FPR1): 754 nM | increase in intracellular calcium ions through activation of FPR1 (in words) (FPR1): increase in calcium ions in a concentration-dependent manner was also observed | degradation half-life / ex vivo stability compared to the WKYMVm peptide (in words) [1, 7]: half-life similar to that of the WKYMVm peptide | degranulation activity of neutrophils (neutrophils [2]): induced the degranulation activity of neutrophils very effectively to a similar extent as the WKYMVm peptide | superoxide anion production in neutrophils (neutrophils [3]): induce superoxide anion production very effectively to a similar extent as the WKYMVm peptide | chemotactic migration of neutrophils (neutrophils [4]): effectively induce chemotactic migration of neutrophils in a concentration-dependent manner | EC50 (FPR2): 13.9 nM | increase in intracellular calcium ions through activation of FPR2 (in words) (FPR2): increase in calcium ions in a concentration-dependent manner was observed | calcium ion-increasing effect in neutrophils (neutrophils [5]): highly induced

Molecule: CSCC[C@@H](CC(=O)N[C@H](C(=O)N[C@H](CCSC)C(N)=O)C(C)C)NC(=O)C[C@H](Cc1ccc(O)cc1)NC(=O)[C@H](CCCCN)NC(=O)[C@@H](N)Cc1c[nH]c2ccccc12 [WKYβMβVm]
degradation half-life / ex vivo stability compared to the WKYMVm peptide (in words) [1, 7]: improved ex vivo stability | degranulation activity of neutrophils (neutrophils [2]): effectively promoted the degranulation activity of neutrophils | superoxide anion production in neutrophils (neutrophils [3]): effectively promoted superoxide anion production | effect of enhancing neutrophil mobility, compared with the WKYMVm peptide (neutrophils [4]): maintained similar activity to the WKYMVm peptide | calcium ion-increasing effect in neutrophils (neutrophils [5]): highly induced

Molecule: CSCC[C@H](NC(=O)[C@H](Cc1ccc(O)cc1)NC(=O)C[C@H](CCCCN)NC(=O)[C@@H](N)Cc1c[nH]c2ccccc12)C(=O)N[C@H](C(=O)N[C@H](CCSC)C(N)=O)C(C)C [WKβYMVm]
EC50 (FPR1): 261 nM | increase in intracellular calcium ions through activation of FPR1 (in words) (FPR1): increase in intracellular calcium ions was induced | half-life increase compared to the WKYMVm peptide [1, 7]: about 1.9 times | degranulation activity of neutrophils (neutrophils [2]): induced the degranulation activity of neutrophils very effectively to a similar extent as the WKYMVm peptide | superoxide anion production in neutrophils (neutrophils [3]): induce superoxide anion production very effectively to a similar extent as the WKYMVm peptide | chemotactic migration of neutrophils (neutrophils [4]): effectively induce chemotactic migration of neutrophils in a concentration-dependent manner | increase in intracellular calcium ions through activation of FPR2 (in words) (FPR2): increase in calcium ions in a concentration-dependent manner was observed | calcium ion-increasing effect in neutrophils (neutrophils [5]): highly induced

Molecule: CSCC[C@@H](CC(=O)N[C@H](C(=O)N[C@H](CCSC)C(N)=O)C(C)C)NC(=O)[C@H](Cc1ccc(O)cc1)NC(=O)C[C@H](CCCCN)NC(=O)[C@@H](N)Cc1c[nH]c2ccccc12 [WKβYMβVm]
degradation half-life / ex vivo stability compared to the WKYMVm peptide (in words) [1, 7]: improved ex vivo stability | half-life increase compared to the WKYMVm peptide [1, 7]: about 3.3 times | degranulation activity of neutrophils (neutrophils [2]): effectively promoted the degranulation activity of neutrophils | superoxide anion production in neutrophils (neutrophils [3]): effectively promoted superoxide anion production | effect of enhancing neutrophil mobility, compared with the WKYMVm peptide (neutrophils [4]): maintained similar activity to the WKYMVm peptide | calcium ion-increasing effect in neutrophils (neutrophils [5]): highly induced

Molecule: CSCC[C@H](NC(=O)C[C@H](Cc1ccc(O)cc1)NC(=O)C[C@H](CCCCN)NC(=O)[C@@H](N)Cc1c[nH]c2ccccc12)C(=O)N[C@H](C(=O)N[C@H](CCSC)C(N)=O)C(C)C [WKβYβMVm]
EC50 (FPR1): 2440 nM | increase in intracellular calcium ions through activation of FPR1 (in words) (FPR1): activated | degranulation activity of neutrophils (neutrophils [2]): effectively promoted the degranulation activity of neutrophils | superoxide anion production in neutrophils (neutrophils [3]): effectively promoted superoxide anion production | effect of enhancing neutrophil mobility, compared with the WKYMVm peptide (neutrophils [4]): slight decrease in activity | EC50 (FPR2): 77.3 nM | increase in intracellular calcium ions through activation of FPR2 (in words) (FPR2): activated | calcium ion-increasing effect in neutrophils (neutrophils [5]): highly induced

Molecule: CSCC[C@@H](CC(=O)N[C@H](C(=O)N[C@H](CCSC)C(N)=O)C(C)C)NC(=O)C[C@H](Cc1ccc(O)cc1)NC(=O)C[C@H](CCCCN)NC(=O)[C@@H](N)Cc1c[nH]c2ccccc12 [WKβYβMβVm]
Half-Life [1, 6]: > 24 h | degranulation activity of neutrophils (neutrophils [2]): did not induce the degranulation activity of neutrophils | superoxide anion production in neutrophils (neutrophils [3]): did not induce superoxide anion production | calcium ion-increasing effect in neutrophils (neutrophils [5]): highly induced

Molecule: CSCC[C@H](NC(=O)CN(Cc1ccc(O)cc1)C(=O)[C@H](CCCCN)NC(=O)[C@@H](N)Cc1c[nH]c2ccccc12)C(=O)N[C@H](C(=O)N[C@H](CCSC)C(N)=O)C(C)C [Y peptoid] (H-WK[Gly(N-4-hydroxybenzyl)]MV[dM]-NH2)
Half-Life (FIG. 17): 1.1 h | degranulation activity of neutrophils (neutrophils [2]): promoted the degranulation activity of neutrophils to the extent similar to the WKYMVm peptide | superoxide anion production in neutrophils (neutrophils [3]): effectively promote superoxide anion production

Half-Life (FIG. 17): 2.0 h | Half-Life (【FIG 16】): 2.6 h
Molecule: WKYMVm (W)

Half-Life (【FIG 16】): 2.4 h
Molecule: WKYMβVm (βM)

Half-Life (【FIG 16】): 2.1 h
Molecule: WKYβMVm (βY)

Half-Life (【FIG 16】): 4.9 h
Molecule: WKβYMVm (βK)

Half-Life (【FIG 16】): 8.7 h
Molecule: WKβYMβVm (βKβM)
